Assay results: patent US6906061B2, “Pharmaceutical agent containing Rho kinase inhibitor” (Mitsubishi Pharma Corporation, priority 1996, dated 2005)
Where a name gives a salt, the structure may show the parent alone. Read-outs that look alike come from different tables or passages of the source.

Legend:
[1] = system: hind limb skin blood flow; experiment: Peripheral blood flow increasing action in STZ-induced diabetic rats; format: in vivo, rat; conditions: intravenous
Description: Peripheral Blood Flow Increasing Action
Streptozotocin (STZ, 65 mg/kg) was intravenously injected to male SD rats (body weight 200-300 g) to prepare diabetic rats. One month later, STZ-induced diabetic rats were anesthetized with pentobarbital sodium and the blood flow in the hind limb skin was measured with laser blood flowmeter (ALF21R, Advance). The test compound was intravenously administered via catheter dwelled in the carotid arteries, and hind limb skin blood flow increasing action was observed. The blood flow increasing action of the test compound was expressed by increase percentage from the blood flow before administration.

[2] = system: normal human umberical vascular endothelial cells; experiment: Inhibition of angiogenesis (lumen formation in vascular endothelial cells); format: cell-based; conditions: 18 hours, compared with the control, number rises with inhibition of lumen formation
Description: Inhibition of Angiogenesis
The inhibition of angiogenesis was evaluated by using the inhibition of lumen formation in vascular endothelial cell as an index. To be specific, normal human umberical vascular endothelial cells (KURABO […] LTD.) were suspended in E-GMUV medium at 5.5×10^4 cells/ml and 400 μl therefrom was added on matrigel plate (EHS sarcoma-derived reconstructed basement membrane, Collaborative Biomedical Products). Then, the test compound (1 mM solution, 4 μl) was added and the cells were incubated at 37° C. under 5% CO2 gas for 18 hours. After the completion of the incubation, the number of lumen per predetermined area was counted under a microscope. Inasmuch as the number of lumen increases by the inhibition of lumen formation, the test compound was evaluated by comparison of the number of lumen with the control.

[3] = system: CEM cells (human T cell type established cell); experiment: Inhibition of VLA integrin activation (phorbol ester-induced adhesion of CEM cells to fibronectin); format: cell-based; conditions: CCRF-CEM, concentration 100 μM, PMA-induced adhesion, read-out: Adhesion induction inhibition (%)
Description: Inhibition of VLA (Very Late Antigen) Integrin Activation
As the index of the activation by VLA integrin, phorbol ester-induced adhesion of CEM cells (human T cell type established cell) to fibronectin, which is a ligand of VIA integrin, was measured. The inhibitory action on the induced adhesion by the test compound was determined by the following method.
CEM cells were washed with RPMI1640 medium containing 0.5% bovine serum albumin (BSA), 10 mM HEPES, 2 mM L-glutamin, 1 mM sodium pyruvate, 60 μg/ml kanamycin sulfate and 1.5 mg/ml sodium hydrogencarbonate (hereinafter this medium is referred to as culture solution) and suspended in this medium for use in the following experiment. To each well of a 96 well plate coated with human fibronectin were added CEM cells (5×10^4) and the test compound dissolved in the culture solution (final concentration 1-100 μM) to the amount of 100 μl, and the plate was stood at 37° C. for 1 hour. Then, PMA (phorbol 12-myristate 13-acetate, TPA; final concentration 10 ng/ml) and the test compound were added to the amount of 200 μl, and the plate was stood at 37° C. for 30 minutes. Each well was washed twice with the culture solution (200 μL) at 37° C., and the LDH (lactate dehydrogenase) activity of the cells adhered to the plate was determined, whereby the amount of the adhered cell was measured. Based on the results obtained by the above-mentioned method, the inhibitory action of the test compound on the induced adhesion was calculated by the following formula The results are shown in Table 6. Inhibition (%) of adhesion induction=(a−b)/(a−c)×100 • a=number of cells adhered with the addition of PMA • b=number of cells adhered with the addition of test compound and PMA • c=number of cells adhered without stimulation

[4] = system: Bovine Aorta Thoracia Rho Kinase; experiment: Rho kinase inhibitory action (inhibition of bovine aorta thoracia Rho kinase); format: biochemical; conditions: test compound 10 μM
Description: Rho Kinase Inhibitory Action (Inhibition of Bovine Aorta Thoracia Rho Kinase)
The Rho kinase was prepared from bovine aorta of thorax by partial purification as in the following. The artery was minced and homogenized with a 9-fold amount of 50 mM Tris-hydroxymethylaminomethane (Tris) (pH=7.4), 1 mM dithiothreitol, 1 mM EGTA, 1 mM EDTA, 100 μM p-amidinophenylmethylsulfonyl fluoride, 5 μM E-64, 5 μM leupeptine and 5 μM pepstatin A. The homogenate was centrifuged (10,000×g, 30 minutes) to give supernatant. The supernatant was adsorbed onto a hydroxyapatite column. The column was washed with 0.2M phosphate buffer (pH=6.8). The standard product of Rho kinase was eluted with 0.4M phosphate buffer (pH=6.8). The Rho kinase was assayed as follows.
A reaction mixture (total amount 50 μl) containing 50 mM Tris, 1 mM EDTA, 5 mM MgCl2, 50 μg/ml histone, 10 μM GTPγS, 100 μg/ml Rho, 2 μM [^32P]ATP, the Rho kinase (3 μl) prepared in the above and the test compound was reacted at 30° C. for 5 minutes. The reaction was terminated by the addition of 25% trichloroacetic acid (TCA) solution (1 ml) and the mixture was stood at 4° C. for 30 minutes. Then, the mixture was filtered through a membrane filter (HAWP type, Millipore), and the radioactivity of the filter was counted on a liquid scintillation counter. The inhibitory action of the test compound was calculated from the following formula based on the comparison of the radioactivity with the sample without the test compound (control).

[5] = system: BALB/c spleen cells stimulated with C57BL/6 spleen cells; experiment: Inhibition of mouse allogenic mixed lymphocyte reaction; format: cell-based; conditions: 4 days culture, MTT, read-out: Mouse allogenic MLR inhibitory activity IC50
Description: Inhibition of Mouse Allogenic Mixed Lymphocyte Reaction
A mouse allogenic mixed lymphocyte reaction (hereinafter to be referred to as mouse allogenic MLR) was performed by mixed culture (equal ratio) of the spleen cell of BALB/c mice as the reaction cell and the spleen cell of C57BL/6 mice treated with mitomycin C as stimulated cell.
The reaction cells were prepared by the following method. Spleen was removed from 5-6 week old BALB/c mice and treated with RPMI1640 medium (containing kanamycin sulfate (60 μg/ml), penicillin G potassium (100 units/ml), N-2-hydroxyethylpiperazine-N′-2-ethanesulfonate (10 mM), 0.1% sodium hydrogencarbonate and L-glutamin (2 mM)) supplemented with 5% heat inactivated fetal bovine serum (FBS) to give a single cell suspension of the spleen cell. After hemolysis treatment, the suspension was adjusted to10^7 cells/ml with RPMI1640 medium containing 10^−4 M 2-mercaptoethanol and 10% FBS and used as a reaction cell suspension.
The reaction cell suspension (50 μl) prepared by the above method, stimulated cell suspension (50 μl) and the test compound (100 μl) prepared using RPMI1640 medium containing 10% FBS were added to a 96 well plate and incubated at 37° C. under 5% CO2 gas, 95% air for 4 days.
A pigment assay using 3-(4,5-dimethylthiazol-2-yl)-2,5-diphenyltetrazolium bromide (MTT) was applied for the determination of lymphocyte transformation reaction.
After the completion of culture, the supernatant (100 μl) in each well was removed, and 5 mg/ml MTT solution (20 μl) was added to each well, which was followed by incubation at 37° C. for 4 hours. Then, a 0.01 N hydrochloric acid solution (100 μl) containing 10% sodium dodecyl sulfate was added and the mixture was incubated at 37° C. overnight. The resulting purple crystals of formazan was dissolved and absorbance at 550 nm was measured using a microplate absorption meter, which was used as the index of lymphocyte transformation reaction of the mouse allogenic MLR. The inhibition of mouse allogenic MLR was evaluated by calculating the inhibition percentage by the following formula The results are shown in Table 7.

mouse femoral bone = experiment: Inhibition of bone resorption (in vitro), mouse femoral bone; conditions: 6 days incubation of ICR mouse femoral bone
Description: Inhibition of Bone Resorption (in vitro)
The determination of the in vitro inhibition of bone resorption using mouse femoral bone followed the method below.
The femoral bone of 3-6 week old male ICR mice was aseptically removed, and bone marrow cavity was washed with F12 medium, containing 10% heat inactivated fetal bovine serum, penicillin G calcium (100 units/ml), kanamycin sulfate (60 μg) and 0.15% sodium hydrogencarbonate (hereinafter the medium is to be referred to as culture solution). After washing the bone marrow cavity and then removing the soft tissue adhered to the bone, the bone was subjected to incubation. The test compound was once dissolved in dimethyl sulfoxide (DMSO) to give a 10 mg/ml solution, which was diluted 1000-fold with the culture solution to give a 10 μg/ml solution. The test compounds were respectively added to the concentration shown in Table 7 and, using this culture solution (1.2 ml), the ICR mouse femoral bone was incubated in a 24 well plate for 6 days under the conditions of 5% CO2 gas, 95% air. After the completion of the incubation, the culture supernatant was recovered, and the amount of calcium suspending in the culture supernatant was quantitatively determined by the chelate method using o-cresolphthalein. The bone resorption inhibitory action of the test compound was calculated by the following formula using the incubation of the femoral bone without addition of the test compound as a control. [formula] This experiment was done with 4 cases in each group. As the control, the same amount of DMSO alone as in the case with the addition of the test compound was used.

In the case of O=C(Nc1ccnc2[nH]ccc12)C1CCN(CCCc2ccccc2)CC1 (as salt: hydrochloride) [Compound 200, N-(1H-pyrrolo[2,3-b]pyridin-4-yl)-1-(3-phenylpropyl)-4-piperidinecarboxamide], the melting point is reported as 276 °C (dec.).

For O=C(Nc1ccnc2c1CCN2)C1CCNCC1 (as salt: hydrochloride) (hydrate or solvate) [Compound 197, N-(2,3-dihydro-1H-pyrrolo[2,3-b]pyridin-4-yl)-4-piperidinecarboxamide], the melting point was 235 °C (dec.).

With O=C(Nc1ccnc2[nH]ccc12)C1CCN(Cc2ccccc2)CC1 (as salt: hydrochloride) (hydrate or solvate) [Compound 201, N-(1H-pyrrolo[2,3-b]pyridin-4-yl)-1-benzyl-4-piperidinecarboxamide] the melting point was 260 °C (dec.).

In the case of C[C@@H](N)c1ccc(C(=O)Nc2ccnc3[nH]ncc23)cc1 [Compound 166.2HCl.H2O, (R)-(+)-N-(1H-pyrazolo[3,4-b]pyridin-4-yl)-4-(1-aminoethyl)benzamide], the “Increase in skin blood flow ± standard error (%)” value ([1]; 0.3 μg) is reported as 143.2 ± 25.4% and the “Increase in skin blood flow ± standard error (%)” value ([1]; 1 μg) is reported as 165.9 ± 42.5%.

For O=S(=O)(c1cccc2cnccc12)N1CCCNCC1 [Compound 204.2HCl, 1-(5-isoquinolinesulfonyl)homopiperazine], the “Number of lumen (10 μM)” value [2] was 133%, the inhibition at 100 µM [3] was 82% and the “Inhibition (%)” value [4] was 93%.

In the case of O=C(Nc1ccnc2[nH]ncc12)C1CCNCC1 (as salt: hydrochloride) (hydrate or solvate) [Compound 194, N-(1H-pyrazolo[3,4-b]pyridin-4-yl)-4-piperidinecarboxamide], the melting point is reported as 277 °C (dec.).

In the case of N=C(N)N1CCC(C(=O)Nc2ccnc3[nH]ccc23)CC1 (as salt: hydrochloride) (hydrate or solvate) [Compound 199, N-(1H-pyrrolo[2,3-b]pyridin-4-yl)-1-amidino-4-piperidinecarboxamide], the melting point is reported as 246 °C (dec.).

In the case of O=C(Nc1ccnc2[nH]ncc12)C1CCN(CCCc2ccccc2)CC1 (as salt: hydrochloride) (hydrate or solvate) [Compound 203, N-(1H-pyrazolo[3,4-b]pyridin-4-yl)-1-(3-phenylpropyl)-4-piperidinecarboxamide], the melting point is reported as 240 to 244 °C (dec.).

In the case of O=C(Nc1ccnc2[nH]ncc12)C1CCN(CCc2ccccc2)CC1 (as salt: hydrochloride) (hydrate or solvate) [Compound 202, N-(1H-pyrazolo[3,4-b]pyridin-4-yl)-1-(2-phenylethyl)-4-piperidinecarboxamide], the melting point is reported as 259 to 261 °C (dec.).

Molecule COCn1ncc2c(NC(=O)C3CCNCC3)ccnc21 (hydrate or solvate) [Compound 196, N-(1-methoxymethyl-1H-pyrazolo[3,4-b]pyridin-4-yl)-4-piperidinecarboxamide] has a melting point of 240 to 241 °C.

With CC(C)(N)[C@H]1CC[C@H](C(=O)Nc2ccnc3[nH]ccc23)CC1 [Compound 110.2HCl.H2O, trans-N-(1H-pyrrolo[2,3-b]pyridin-4-yl)-4-(11-amino-1-methylethyl)cyclohexanecarboxamide] the “Number of lumen (10 μM)” value [2] was 203%, the IC50 [5] was 1.1 µM and the “Bone resorption inhibition % (μM)” value (mouse femoral bone; 100 μM) was 74.0(100) %.

In the case of O=C(Nc1ccnc2[nH]ccc12)C1CCNCC1 (as salt: hydrochloride) (hydrate or solvate) [Compound 193, N-(1H-pyrrolo[2,3-b]pyridin-4-yl)-4-piperidinecarboxamide], the melting point is reported as 273 °C (dec.).

In the case of CC(N)[C@H]1CC[C@H](C(=O)Nc2ccnc3[nH]ncc23)CC1 (single isomer, unassigned; (+)) [Compound 112.2HCl, (+)-trans-N-(1H-pyrazolo[3,4-b]pyridin-4-yl)-4-(1-aminoethyl)cyclohexanecarboxamide], the IC50 ([5]; Mus musculus, Lymphocyte, 96 h) is reported as 4.4 µM and the inhibition at 100 µM (mouse femoral bone; 144 h) is reported as 75.7%.

With O=C(Nc1ccnc2[nH]ccc12)C1CCN(CCc2ccccc2)CC1 (as salt: hydrochloride) (hydrate or solvate) [Compound 198, N-(1H-pyrrolo[2,3-b]pyridin-4-yl)-1-(2-phenylethyl)-4-piperidinecarboxamide] the melting point was 272 °C (dec.).
